“Also recorded” adds a separate entry of the source.
What was measured:
[1] = literature value; cited from earlier work
zebrafish (Danio rerio) = experiment: Embryo-larval zebrafish developmental toxicity assay; format: in vivo; settings: for in vivo toxicity in zebrafish (in words): developmental toxicity assay
Protocol: In Vivo Developmental Toxicity Study. An embryo-larval zebrafish (Danio rerio) model was used to evaluate the toxicity of the novel dicationic cholinium-based ionic liquid. The following protocol was taken from previously published protocol, analyzing the toxicity of a novel triphilic polymers for use as a component in a nanoemulsion.^1 Zebrafish of the AB strain were obtained from Dr. Michael Taylor at the University of Wisconsin-Madison School of Pharmacy, where the fish were cultured until sexual maturation. Zebrafish were maintained in a light/dark cycle of 14:10 h at 28.5° C. in egg water (0.03% Instant Ocean, Blacksburg, Va., USA). The adult fish were fed Anemia nauplii twice daily. Embryos were obtained from adult fish with a ratio of 1:2 for female to male. Six breeding groups were placed in separate spawning aquariums, equipped with a mesh bottom to prevent the eggs from being cannibalized. Crossing was induced in the morning. After one hour, eggs free of macroscopically discernible symptoms of infection and disease were collected, rinsed with egg water, and transferred into Petri dishes until chemical exposure. The embryo-larval toxicity assay was subsequently carried out. 8 fertilized eggs at 2 hours post fertilization (hpf) stage were added to a 24-well plate. Each well was filled with eggs and contained 600 μL of egg water. Six concentrations plus two controls (negative and positive) were plated. For analysis of [DC-7][2Br], sodium bis(trifluoromethylsulfonyl)imide, and [DC-7][2NTf2] containing nanoemulsion the concentrations analyzed were 1 mM, 333 μM, 111 μM, 37 μM, 12.3 μM, and 4.1 μM. 1.5 mL of [DC-7][2NTf2] was added to a 15 mL conical centrifuge tube followed by 1.5 mL of egg water. The sample was allowed to sit for 6 days prior to use. Each day, the sample was sonicated at 40° C. for 6 hours and then allowed to remain at room temperature for 18 hours. After 6 days, the sample was centrifuged at 2000 rpm for 5 minutes to ensure complete sedimentation of the ionic liquid. 1.2 mL of egg water was removed and served as the stock solution. This served as the highest concentration sample. Integration of the internal standard and [DC-7][2NTf2] in the QNMR sample allowed for quantitation of the concentration of [DC-7][2NTf2] present in the stock solution used for the zebrafish viability assay. The concentrations analyzed for [DC-7][2NTf2] sample were 7.11 mM, 3.56 mM, 1.78 mM, 889 μM, 444 μM, and 222 μM.
The plates were covered and incubated at 28.5° C. in a light/dark cycle of 14:10 throughout the 96 hpf exposure period. The observations of zebrafish development were made directly in the well using a stereomicroscope (Nikon SMZ18) every 24 hours. The end points that were selected to monitor the effects of [DC-7][2Br], sodium bis(trifluoromethylsulfonyl)imide, [DC-7][2NTf2] saturated water solution and nanoemulsion included mortality, spontaneous movement, hatching success, pericardial edema, and curved body axis. Embryos and larvae were considered dead when no heartbeat was observed. The number of hatched embryos and a cumulative mortality tally were recorded every 24 h after 2 hpf. At 96 hpf, following the final observations, representative larvae for [DC-7][2Br] and [DC-7][2NTf2] saturated egg water were anesthetized with 0.4% tricaine mesylate solution and mounted on Petri dishes using low melting point agarose. These larvae were then photographed using a high-definition color microscope camera (Nikon DSFi2). Finally, all larvae used for the analysis were euthanized following.

[2] = UV/vis spectroscopy of the aggregation state of AmB; format: physicochemical; settings: for aggregation state of AmB in the medium (in words): AmB solubilized in the ionic liquid or ionic liquid mixture named
Protocol: Measuring absorbance of Amphotericin B (AmB) at distinct wavelengths using UV/vis spectroscopy provides insight into its degree of self-aggregation. Absorption spectra were obtained on a Varian Cary 100Bio UV-vis spectrometer (Varian, Palto Alto, Calif.) at 25° C. using a quartz coverslip with a 0.1 mm pathlength (Starna Cells, Inc., Atascadero, Calif.) or a 1 mm pathlength quartz cuvette (Starna Cells, Inc., Atascadero, Calif.). Absorbance was measured from 300 nm to 500 nm. Samples were prepared by direct addition of AmB powder to neat ionic liquids. Ionic liquids solid at room temperature were first melted using a water bath at 60° C. prior to addition of AmB powder. After addition of solid drug, (1) 100 μL of methanol was then added to the IL mixture and the mixture was stirred at room temperature for 1 hour. (2) The drug/IL mixture was then placed under rotary evaporation in a water bath with at a temperature of 60° C. for 1 hour. (3) The drug/IL mixture was then placed under high vacuum for 1 hour. (4) The drug/IL mixture was then allowed to stir for 1 hour. This process (steps 1-4) was repeated until all drug visibly was solubilized. The drug/IL mixture was then placed under rotary evaporation at 60° C. for an additional hour and then under high vacuum for 24 hours prior to use to ensure removal of all methanol. Samples were shielded from light prior to analysis. Neat ionic liquids served as the baseline for AmB samples solubilized in ionic liquid. Dilution samples were performed using 1×PBS for dilution. Analysis of AmB nanoemulsion required a nanoemulsion without drug as the baseline to correct for inherent scattering of the prepared nanoemulsion.

[3] = Quantitative 19F NMR (QNMR) water-solubility of hydrophobic ionic liquids; format: physicochemical; settings: saturated D2O; for solubility at 6 days: 25 °C, water, thermodynamic from solid, read-out: Ionic Liquid Concentration in D2O (water-solubility)
Protocol: Example 12A: Quantitative ^19F NMR spectroscopy (QNMR) for determination of concentration of hydrophobic ionic liquids in a water-solution for comparison of water-solubility of hydrophobic ionic liquids.
^19F NMR spectra was measured using a Varian UI 500 MHz spectrometer equipped with a Nalorac Quad Nucleus DD probe (qn6121, 5 mm). The internal temperature of the NMR spectrometer was maintained at 25° C. Sodium trifluoroacetate was used as an internal standard was employed in order to determine the concentration of [DC-7][2NTf2]. The internal standard was prepared in D2O and the stock solution was allowed to sonicate at 30° C. for 4 hours prior to use in order to ensure complete dissolution of sodium trifluoroacetate. Prior to quantitative study, the T1 value of both [DC-7][2NTf2] and sodium trifluoroacetate were determined using an inversion recover experiment acquired with 12 independent quadratically spaced variable (tau) values (values from 0.06944-10). The T1 value was calculated in order to ensure that both signals fully relaxed between pulses. The following parameters were employed for acquisition of T1 spectra: 500 MHz; spectra width, 107962.2 Hz; acquisition time, 1.004 s; number of points, 216688; relaxation delay, 18.996 s; number of transients, 1; 90° pulse width, 17.1 μs. X-Win32 software was used to calculate the T1 value and processing included a line broadening of 1 Hz. The T1 value of the sodium trifluoroacetate and [DC-7][2NTf2] was determined to be 2.76±0.172 seconds and 2.69±0.0885 seconds, respectively. After determination of T1, the QNMR study was completed on an optimized spectrum. […] The acquired spectrum has a signal to noise ratio of 4700, which exceeded the desired 3000 needed for quantitation. […] 0.5 mL of D2O was removed and then subsequently analyzed. Integration of the internal standard and [DC-7][2NTf2] allowed for quantitation of the concentration of [DC-7][2NTf2] present in the stock solution used for the zebrafish viability assay.

[4] = Viscosity (Brookfield viscometer); format: physicochemical; settings: 30.2 ° C.
Protocol: A Brookfield viscometer (Model RVDV-1) was used to analyze the ionic liquids at 30° C. The spindle used on the instrument was CPA-41Z. After addition of 2 mL of sample to the instrument cup, the cup was warmed until all IL samples were completely transparent before beginning the measurement. The RPM was adjusted per sample in order to ensure the percent torque applied per sample was in a consistent range.

C[C@@H]1[C@H](O)[C@@H](C)/C=C/C=C/C=C/C=C/C=C/C=C/C=C/[C@H](O[C@@H]2O[C@H](C)[C@@H](O)[C@H](N)[C@@H]2O)C[C@@H]2O[C@](O)(C[C@@H](O)C[C@@H](O)[C@H](O)CC[C@@H](O)C[C@@H](O)CC(=O)O[C@H]1C)C[C@H](O)[C@H]2C(=O)O [AmB, Amphotericin B]
water solubility [1]: < 1.0 µg/mL

O=C(O)C(F)(F)C(F)(F)C(F)(F)C(F)(F)C(F)(F)C(F)(F)C(F)(F)F [PFOA, perfluorooctanoic acid, reference compound]
zebrafish malformations, microscope images (in words) (zebrafish (Danio rerio); 96 hours post-fertilization, concentration not stated (FIG. 64)): spinal curvature

CCCCCC(=O)[O-].C[N+](C)(C)CCO [[Chol][Hex], cholinium hexanoate]
aggregation state of AmB in the medium (in words) [2]: solely the monomeric form
aggregation state of AmB upon dilution (in words) ([2]; dilution with phosphate-buffered saline / saline): shifts from primarily the monomeric to the aggregated form; also recorded: concentration dependent aggregation; also recorded: shifted from monomeric to aggregated

C[N+](C)(CCO)CCCCCCC[N+](C)(C)CCO [[DC-7][2NTf2]]
zebrafish malformations (in words) (zebrafish (Danio rerio); 889 μM, 96 hours post fertilization): no malformations
zebrafish survival rate / viability (zebrafish (Danio rerio); 889 μM, dilution of saturated water solution, 96 hours post fertilization): 100%
in vivo toxicity in zebrafish (in words) (zebrafish (Danio rerio); 96 hours post fertilization): does not exhibit toxicity; also recorded: minimal toxicity
in vivo toxicity in zebrafish (in words) (zebrafish (Danio rerio); 96 hours post fertilization, listed as [CDIL-7][NTf2]): extremely low
solubility at 6 days [3]: 10.7 mM
Ionic Liquid Concentration in D2O (water-solubility) ([3]; 25° C.): 6 mM
aggregation state of AmB in the medium (in words) [2]: mixture of the aggregated form and monomeric form; also recorded: mixture of monomeric and aggregated AmB

C[N+](C)(CCO)CCOCCOCC[N+](C)(C)CCO [[DC-ether][2NTf2]]
solubility at 6 days [3]: 13 mM
Viscosity [4]: 891.5 cP

O=S(=O)([N-]S(=O)(=O)C(F)(F)F)C(F)(F)F.[Na+] [sodium bis(trifluoromethylsulfonyl)imide, reference compound]
zebrafish survival rate (zebrafish (Danio rerio); 111 μM, 96 hours post fertilization): 87%
in vivo toxicity in zebrafish (in words) (zebrafish (Danio rerio); 96 hours post fertilization): minimal toxicity
